Measured values: patent publication US20050197338A1, “Substituted pyrazole urea compounds for the treatment of inflammation” (priority 2003, published 2005)
Where a name gives a salt, the structure may show the parent alone.

The molecules below were run against T1, human IKK-2 (rhIKK-2 homodimer) (Homo sapiens, UniProt O14920) (assay: IKK-2 Resin Enzyme Assay (Human IKK-2 Enzyme Assay)). Conditions: human IKK-2, resin enzyme assay; read-out: IC50 (μM) hIKK-2.
T1 construct: FLAG (DYKDDDDKD) (C); made in house; host or cells: insect cells (baculovirus, pFastBac)
T1 sequence (O14920 1-756): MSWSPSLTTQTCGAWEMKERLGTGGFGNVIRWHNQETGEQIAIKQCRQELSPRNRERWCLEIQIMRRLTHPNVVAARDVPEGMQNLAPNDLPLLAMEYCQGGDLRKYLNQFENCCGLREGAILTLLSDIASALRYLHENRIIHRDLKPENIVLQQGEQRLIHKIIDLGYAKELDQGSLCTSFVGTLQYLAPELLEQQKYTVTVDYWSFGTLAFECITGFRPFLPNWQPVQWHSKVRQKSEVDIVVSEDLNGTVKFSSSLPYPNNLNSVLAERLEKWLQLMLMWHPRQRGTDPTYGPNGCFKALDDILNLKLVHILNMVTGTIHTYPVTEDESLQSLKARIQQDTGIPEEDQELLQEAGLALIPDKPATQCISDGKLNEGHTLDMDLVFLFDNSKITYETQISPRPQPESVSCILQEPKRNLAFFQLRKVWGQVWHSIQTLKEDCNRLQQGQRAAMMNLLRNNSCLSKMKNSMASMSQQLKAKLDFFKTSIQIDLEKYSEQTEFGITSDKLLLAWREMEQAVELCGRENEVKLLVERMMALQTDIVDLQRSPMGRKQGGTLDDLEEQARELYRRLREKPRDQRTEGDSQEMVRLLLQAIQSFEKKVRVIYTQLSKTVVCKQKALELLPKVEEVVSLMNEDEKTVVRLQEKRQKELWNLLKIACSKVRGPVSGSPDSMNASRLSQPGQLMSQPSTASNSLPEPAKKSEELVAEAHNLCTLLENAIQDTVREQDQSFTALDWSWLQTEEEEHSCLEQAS
Format: biochemical
Outline: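 C-terminally FLAG-tagged human IKK-2 homodimer, baculovirus-expressed in insect cells and anti-FLAG purified. Reaction mix: 5 μM biotinylated IκBα peptide (Ser32/Ser36 region), 1 μM ATP with [γ-33P]ATP, 2 mM MgCl2, 2 mM MnCl2, 10 mM NaF, 1 mM DTT, 25 mM HEPES pH 7.6. Incubated 30 min at 25 °C; IC50 derived.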
`CCN(CC)C(=O)COc1cccc(-c2ccc(-n3cc(NC(N)=O)c(C(N)=O)n3)cc2)c1` [Example 336, 4-[(aminocarbonyl)amino]-1-{3′-[2-(diethylamino)-2-oxoethoxy]-1,1′-biphenyl-4-yl}-1H-pyrazole-3-carboxamide] gave an IC50 of 0.42 µM.
With `CCN(CC)C(=O)CCc1cccc(-c2ccc(-n3cc(NC(N)=O)c(C(N)=O)n3)cc2)c1` [Example 382, 4-[(aminocarbonyl)amino]-1-{3′-[3-(diethylamino)-3-oxopropyl]-1,1′-biphenyl-4-yl}-1H-pyrazole-3-carboxamide] the IC50 was 0.9 µM.
`N#CCOc1cccc(-c2ccc(-n3cc(NC(N)=O)c(C(N)=O)n3)c(F)c2)c1` [Example 179, 4-[(aminocarbonyl)amino]-1-[3′-(cyanomethoxy)-3-fluoro-1,1′-biphenyl-4-yl]-1H-pyrazole-3-carboxamide] gave an IC50 of 0.51 µM.
Molecule `COc1ccc(-c2cccc(-n3cc(NC(N)=O)c(C(N)=O)n3)c2)cc1OC` [Example 56, 4-[(aminocarbonyl)amino]-1-(3,4′-dimethoxy-1,1′-biphenyl-3-yl)-1H-pyrazole-3-carboxamide] has an IC50 of 2.16 µM.
With `NC(=O)Nc1cn(-c2ccc(-c3ccc(F)cc3)cc2)nc1C(N)=O` [Example 25, 4-[(aminocarbonyl)amino]-1-(4′-fluoro-1,1′-biphenyl-4-yl)-1H-pyrazole-3-carboxamide] the IC50 was 1.55 µM.
With `NC(=O)Nc1cn(-c2cccc(-c3ccccc3O)c2)nc1C(N)=O` [Example 71, 4-[(aminocarbonyl)amino]-1-(2′-hydroxy-1,1′-biphenyl-3-yl)-1H-pyrazole-3-carboxamide] the IC50 was 2.25 µM.
In the case of `NC(=O)Nc1cn(-c2cccc(Sc3ccccc3F)c2)nc1C(N)=O` [Example 198, 1-(1-(3-(2-fluorophenylthio)phenyl)-3-carbamoyl-1H-pyrazol-4-yl)urea], the IC50 is reported as 6.52 µM.
In the case of `Cc1cccc(-c2cccc(-n3cc(NC(N)=O)c(C(N)=O)n3)c2)c1` [Example 340, 4-[(aminocarbonyl)amino]-1-(3′-methyl-1,1′-biphenyl-3-yl)-1H-pyrazole-3-carboxamide], the IC50 is reported as > 20 µM.
Work on `NCc1cccc(-c2ccc(-n3cc(NC(N)=O)c(C(N)=O)n3)cc2)c1` [Example 28, 4-[(aminocarbonyl)amino]-1-[3′-(aminomethyl)-1,1′-biphenyl-4-yl]-1H-pyrazole-3-carboxamide] yielded an IC50 of 2.79 µM.
Molecule `NC(=O)Nc1cn(-c2ccc(Sc3ccccc3F)cc2F)nc1C(N)=O` [Example 211, 1-(1-(4-(2-fluorophenylthio)-2-fluorophenyl)-3-carbamoyl-1H-pyrazol-4-yl)urea] has an IC50 of 10.5 µM.
Work on `NC(=O)Nc1cn(-c2ccc(-c3cccc(OCc4ncco4)c3)cc2)nc1C(N)=O` [Example 254, 4-[(aminocarbonyl)amino]-1-[3′-(1,3-oxazol-2-ylmethoxy)-1,1′-biphenyl-4-yl]-1H-pyrazole-3-carboxamide] yielded an IC50 of 0.352 µM.
Molecule `CCOC(=O)c1cccc(-c2ccc(-n3cc(NC(N)=O)c(C(N)=O)n3)cc2)c1` [Example 144, ethyl 4′-{3-(aminocarbonyl)-4-[(aminocarbonyl)amino]-1H-pyrazol-1-yl}-1,1′-biphenyl-3-carboxylate] has an IC50 of 5.05 µM.
`CNC(=O)Nc1cn(-c2ccc(I)c(C)c2)nc1C(N)=O` [Example 245, 1-(4-Iodo-3-methyl-phenyl)-4-(3-methyl-ureido)-1H-pyrazole-3-carboxylic acid amide] was tested, and the IC50 was 5.51 µM.
In the case of `NC(=O)Nc1cn(-c2ccc(I)c(Cl)c2)nc1C(N)=O` [Example 6, 4-[(aminocarbonyl)amino]-1-(3-chloro-4-iodophenyl)-1H-pyrazole-3-carboxamide], the IC50 is reported as 0.546 µM.
`COc1ccc(Cc2cccc(-n3cc(NC(N)=O)c(C(N)=O)n3)c2)cc1OC` [Example 11, 4-[(aminocarbonyl)amino]-1-[3-(3,4-dimethoxybenzyl)phenyl]-1H-pyrazole-3-carboxamide] showed an IC50 of 6.36 µM.
With `NC(=O)Nc1cn(-c2ccc(Sc3ccncc3)cc2)nc1C(N)=O` [Example 206, 1-(3-carbamoyl-1-(4-(pyridin-4-ylthio)phenyl)-1H-pyrazol-4-yl)urea] the IC50 was 0.0514 µM.
In the case of `CC(=O)Nc1cccc(-c2cccc(-n3cc(NC(N)=O)c(C(N)=O)n3)c2)c1` [Example 76, 1-[3′-(acetylamino)-1,1′-biphenyl-3-yl]-4-[(aminocarbonyl)amino]-1H-pyrazole-3-carboxamide], the IC50 is reported as 0.9 µM.
`Cc1cc(-n2cc(NC(N)=O)c(C(N)=O)n2)ccc1-c1cc(F)ccc1O` [Example 242, 1-(5′-Fluoro-2′-hydroxy-2-methyl-biphenyl-4-yl)-4-ureido-1H-pyrazole-3-carboxylic acid amide] gave an IC50 of 1.35 µM.
Work on `N#CCc1cccc(-c2ccc(-n3cc(NC(N)=O)c(C(N)=O)n3)cc2)c1` [Example 27, 4-[(aminocarbonyl)amino]-1-[3′-(cyanomethyl)-1,1′-biphenyl-4-yl]-1H-pyrazole-3-carboxamide] yielded an IC50 of 1.36 µM.
`NC(=O)Nc1cn(-c2ccc(-c3cccc(O)c3)cc2)nc1C(N)=O` [Example 22, 4-[(aminocarbonyl)amino]-1-(3′-hydroxy-1,1′-biphenyl-4-yl)-1H-pyrazole-3-carboxamide] was tested, and the IC50 was 1.2 µM.
Work on `CC(C)CCSc1ccc(-n2cc(NC(N)=O)c(C(N)=O)n2)cc1` [Example 291, 1-(3-carbamoyl-1-(4-(isopentylthio)phenyl)-1H-pyrazol-4-yl)urea] yielded an IC50 of 6.23 µM.
`NC(=O)Nc1cn(-c2ccc3ccccc3c2)nc1C(N)=O` [Example 219, 4-[(aminocarbonyl)amino]-1-(2-naphthyl)-1H-pyrazole-3-carboxamide] showed an IC50 of 0.175 µM.
`Cc1cc(-n2cc(NC(N)=O)c(C(N)=O)n2)ccc1Sc1ccc(F)cc1` [Example 297, 1-[4-(4-fluoro-phenylsulfanyl)-3-methyl-phenyl]-4-ureido-1H-pyrazole-3-carboxylic acid amide] showed an IC50 of 1.94 µM.
`CNC(=O)c1ccc(-c2cccc(-n3cc(NC(N)=O)c(C(N)=O)n3)c2)cc1` [Example 74, 4-[(aminocarbonyl)amino]-1-{4′-[(methylamino)carbonyl]-1,1′-biphenyl-3-yl}-1H-pyrazole-3-carboxamide] was tested, and the IC50 was 0.94 µM.
`NC(=O)Nc1cn(-c2cccc(-c3ccc(CO)cc3)c2)nc1C(N)=O` [Example 48, 4-[(aminocarbonyl)amino]-1-[4′-(hydroxymethyl)-1,1′-biphenyl-3-yl]-1H-pyrazole-3-carboxamide] was tested, and the IC50 was 1.04 µM.
`COc1ccc(-n2cc(NC(N)=O)c(C(N)=O)n2)cc1` [Example 10, 4-[(aminocarbonyl)amino]-1-(4-methoxyphenyl)-1H-pyrazole-3-carboxamide trifluoroacetate] gave an IC50 of 2.91 µM.
For `NC(=O)Nc1nn(-c2ccc(-c3ccc(F)cc3F)cc2)cc1C(N)=O` [Example 113], the IC50 was 0.355 µM.
In the case of `NC(=O)Nc1cn(-c2ccc(-c3ccc(C(=O)NCc4ccccc4)cc3)cc2)nc1C(N)=O` [Example 35, 4-[(aminocarbonyl)amino]-1-{4′-[(benzylamino)carbonyl]-1,1′-biphenyl-4-yl}-1H-pyrazole-3-carboxamide], the IC50 is reported as 1.33 µM.
With `CCc1cc(Br)ccc1N/N=C(\C#N)C(N)=O` [Example 277, (2E)-2-[(4-bromo-2-ethylphenyl)hydrazono]-2-cyanoacetamide] the IC50 was 7.59 µM.
`COc1ccc(-c2cccc(-n3cc(NC(N)=O)c(C(N)=O)n3)c2)cc1` [Example 344, 4-[(aminocarbonyl)amino]-1-(4′-methoxy-1,1′-biphenyl-3-yl)-1H-pyrazole-3-carboxamide] was tested, and the IC50 was > 20 µM.
For `NC(=O)Nc1cn(-c2cccc(-c3ccc(F)cc3)c2)nc1C(N)=O` [Example 42, 4-[(aminocarbonyl)amino]-1-(4′-fluoro-1,1′-biphenyl-3-yl)-1H-pyrazole-3-carboxamide], the IC50 was 9.22 µM.
`Cc1cc(S(=O)(=O)c2ccc(F)cc2)ccc1-n1cc(NC(N)=O)c(C(N)=O)n1` [Example 229, 4-[(aminocarbonyl)amino]-1-{4-[(4-fluorophenyl)sulfonyl]-2-methylphenyl}-1H-pyrazole-3-carboxamide] was tested, and the IC50 was 2.19 µM.
With `NC(=O)Nc1cn(-c2ccc(-c3cc(F)ccc3OCC(=O)O)cc2)nc1C(N)=O` [Example 259, [(4′-{3-(aminocarbonyl)-4-[(aminocarbonyl)amino]-1H-pyrazol-1-yl}-5-fluoro-1,1′-biphenyl-2-yl)oxy]acetic acid] the IC50 was 4.01 µM.
With `NC(=O)Nc1cn(-c2ccc3c(c2)OCO3)nc1C(N)=O` [Example 213, 4-[(aminocarbonyl)amino]-1-(1,3-benzodioxol-5-yl)-1H-pyrazole-3-carboxamide] the IC50 was 3.91 µM.
Molecule `Cc1cc(-n2cc(NC(N)=O)c(C(N)=O)n2)ccc1S(=O)(=O)c1ccc(F)cc1` [Example 298, 1-[4-(4-fluoro-benzenesulfonyl)-3-methyl-phenyl]-4-ureido-1H-pyrazole-3-carboxylic acid amide] has an IC50 of 0.724 µM.
